One assay relates to ERK phosphorylation. As to the kind of experiment: ERK phosphorylation by western blot. It is filed as cell-based, human. The settings on record: A549, 2 μM; for effect on pERK levels: 3 and 4 for 24 h, MD15 for 6, 24 or 48 h. How it is done:
The effect of treatment with MIF‐directed PROTAC MD13 on MIF‐related signaling pathways was investigated by assessment of ERK phosphorylation using western blot analysis. […] Thus treatment with the MIF‐directed PROTAC MD13 inhibits ERK phosphorylation as a MIF‐related signaling event. […]
ERK signaling pathway study. A549 cells (2x10^5 cells per well) were seeded into each well of a 6-well plate with 2 mL RPMI-1640 medium containing 10% FBS (Costar Europe, Badhoevedorp, The Netherlands), and 1% penicillin/streptomycin solution (Corning). After overnight culturing, the cells were treated with MD13, MD15, or DMSO for the time indicated.
After that, cells were lysed by RIPA buffer containing 1× PhosSTOP and protease inhibitor (PI) cocktail (Roche, Mannheim, Germany). The BCA Protein Assay Kit (Pierce, Rockford IL, USA) was used to determine the protein concentration. 30 µg protein was separated by a pre-cast 10% NuPAGE Bis-Tris gel (Invitrogen, USA) and then transferred to a polyvinylidene difluoride (PVDF) membrane. After blocking with 5% of skimmed milk for 1 hour at room temperature and incubation with the appropriate primary antibody (pERK, #9101, Cell Signaling, 1:1000; GAPDH, #97166, Cell Signaling, 1:10000) overnight at 4 °C, the membrane was treated with an HRP-conjugated secondary goat anti-rabbit antibody (#P0448, Dako, 1:2000) or rabbit anti-mouse antibody (#P0260, Dako, 1:2000) at room temperature for 1 hour.
The protein bands were visualized with enhanced chemiluminescence (ECL) solution (GE Healthcare). The figures were quantified with imageJ software based on grayscale. […]
A general note: Immunoblotting shows a protein as a band on a membrane.

The target in assay [1] is T1, MIF (Homo sapiens, UniProt P14174).
T1 sequence (P14174 2-115 limits assumed): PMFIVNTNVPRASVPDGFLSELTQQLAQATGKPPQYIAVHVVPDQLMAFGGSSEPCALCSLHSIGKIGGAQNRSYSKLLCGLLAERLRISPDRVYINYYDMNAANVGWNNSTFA
Briefly: MIF catalyzed 4-HPP tautomerization assay. It counts as biochemical. The settings on record: for IC50: 4-HPP conversion assay; for Ki: MIF catalyzed 4-HPP tautomerization, n=3. How it is done: S2. MIF Tautomerase activity IC50 study
The protocol for measuring inhibition of MIF tautomerase enzyme activity and enzyme kinetics was described previously.[8] Briefly, 180 µL of a 500 nM MIF solution in boric acid buffer (435 mM, pH 6.2) was mixed with 10 µL of a 20 mM EDTA solution in demiwater and 10 µL of a solution of the desired compound dissolved in DMSO or blanc DMSO. This mixture was pre-incubated at room temperature for 10 min. Next, 50 µL of this mixture was mixed with 50 µL of a 1 mM 4-HPP solution in ammonium acetate buffer (50 mM, pH 6.0). Subsequently, MIF tautomerase activity was monitored by measuring the increase of UV absorbance at 306 nm over time. MIF tautomerase activity in the presence a blank DMSO dilution was set to 100% enzyme activity. Non-catalyzed conversion of the substrate in absence of MIF was set to 0%.
Data from the first three minutes were used to calculate the initial velocities. All experiments were repeated three times and calculations were performed with the program GraphPad Prism.
Table S1. 4-HPP conversion assay results of MIF PROTACs
(also on this page, place not known: p rotocol previously. subs trate log [MD-1] (10^-6 M) Activity of MIF tautomerase(%) -2 -1 0 1 2 0 50 100 log [MD-2] (10^-6 M) Activity of MIF tautomerase(%) -2 -1 0 1 2 0 50 100)

In assay [2] the target is T1, MIF. Briefly: MIF degradation in A549 cells, western-blot. It counts as cell-based. Details: endogenous in cells; host or cells: A549 (ATCC CCL-185). Here is the method:
The concentration dependence of PROTAC MD13‐mediated induction of MIF degradation in A549 cells was investigated using western‐blot. […] The MIF levels were normalized to the vehicle treated control and plotted to the respective MD13 concentrations. This provided a DC50 of around 100 nM and a maximal degradation of around 90–95 % at concentrations higher than 1 μM (Figure 3 B). The DC50 of MD13 measured by ELISA assay was about 200 nM (Figure 3 C), which is in line with the result from western‐blot. […]
Cell lysates were prepared using the protocol described above. About 10−40 μg of total protein was mixed with the 4× Laemmli Loading Dye (250 mM Tris, pH 6.8, 40% glycerol, 5% SDS, 0.005% bromophenol blue, 4% β-mercaptoethanol) and heated at 95−100 °C for 5 min and loaded onto a 12% Bis-Tris gel (Bio-Rad Laboratories, #4561084) and proteins were separated at 120V. Afterwards, proteins were transferred to polyvinylidene fluoride (PVDF) membranes, subsequently non-specific antibody binding was blocked with 5% nonfat dry milk (BIO-RAD, #1706404) in TBST buffer and incubated overnight at 4 °C with one of the following primary antibodies: anti-MIF (1:1000, ThermoFisher, #PA5-27343 ) or anti-β-actin (1:10000 Cell Signalling, #8457). The membranes were further incubated with a goat anti-rabbit HRP-conjugated secondary antibody (1:2000, DAKO, p0448) for 2 h at room temperature. Proteins were visualized with an ECLTM Prime Western Blotting System (GE Healthcare #RPN2232). The immunoblot was generated by ChemiDoc MP Imaging Systems (Bio-Rad) and analyzed by the ImageJ software. […]
As a control, the same experiment was repeated and analyzed by a western-blot assay (Figure 3B). The potency estimated from the Western blot assay was 1 µM (Figure 3C), which is consistent with the result from the ELISA assay. The “Hook effect” […]

Values joined by “and” are separate entries in the source; they are usually repeats but may differ in a detail not shown here. Equal entries are not always repeated. “Also recorded” adds a separate entry of the source.

Consider `O=C1CCC(N2C(=O)c3cccc(NCCCCCCCC(=O)Nc4ccc(N5Cc6ccc(O)cc6OC5=O)cc4)c3C2=O)C(=O)N1` (stereo not drawn) [MD13], for which, in the assay with ERK phosphorylation (Homo sapiens, 24-hour treatment), the inhibition at 2 µM is roughly 50%. Also, on MIF [1], half-maximal inhibition (IC50) was put at 106 ± 7 nM and the affinity corresponds to a Ki of 71 ± 5 nM. Moreover, the maximal degradation (Dmax) on MIF [2] (A549, A549 cells, 12 h, western-blot, concentrations higher than 1 μM, read-out: maximal degradation (Dmax)) lay in the range of 90 to 95%. Further, the “reduction of MIF protein levels within 3 hours” value on MIF [2] (A549 cells, 3 hours) was “about 80%”. At MIF [2] (A549 cells, 12 h, western-blot, concentrations higher than 1 μM), the “maximal degradation (Dmax)” value is listed as greater than 90%. The DC50 at MIF [2] (A549 cells, 12 h, western-blot, read-out: DC50) was ~100 nM and < 100 nM. Also, the “recovery of the MIF levels after 48 h” value at MIF [2] (A549 cells, 48 h) is reported as “slight recovery”. Further, at MIF [2] (A549 cells, time course, 6 h), the “MIF degradation after 6 h” value was greater than 92%. In addition, the “time of treatment after which MIF degradation becomes visible” value on MIF [2] (A549 cells, MD9 at 10 μM) is 3 h.
With `CN1C(=O)CCC(N2C(=O)c3cccc(NCCCCCCCC(=O)Nc4ccc(N5Cc6ccc(O)cc6OC5=O)cc4)c3C2=O)C1=O` (stereo not drawn) [MD15], the “effect on pERK levels” value in the assay with ERK phosphorylation was “no significant decrease”. At MIF [1], this compound gave an IC50 of 83 ± 18 nM and an inhibition constant (Ki) of 55 ± 12 nM. Moreover, the “effect on MIF level relative to control” value on MIF [2] (A549 cells, 12 hours, inactive control experiment) is listed as “not able to reduce the MIF levels; also recorded: no effect on MIF protein level”.
For the compound `COc1ccc(N2Cc3ccc(O)cc3OC2=O)cc1OC` [compound 3], the “effect on pERK levels” value with ERK phosphorylation is recorded as “no significant decrease”. At MIF [1], this compound yielded an inhibition constant (Ki) of 103 ± 10 nM. In addition, on MIF [2] (A549 cells, 2 hours pretreatment (1 100 µM, 3 50 µM, 4 50 µM, Bortezomib), then 10 µM MD9 12 h), the “rescue of MD9 mediated MIF degradation” value is recorded as “partial to complete rescue; also recorded: rescued”. The “rescue of MD13 mediated MIF degradation” value at MIF [2] (A549 cells, co-treatment (Bortezomib) or 1 hour pretreatment (3, 4) with MD13) is “rescued MIF from degradation; also recorded: able to abolish the MD13 triggered degradation”.

By inhibition is commonly meant how much of the control response was suppressed. Low readings indicate a weak effect, high ones a strong effect. A word on the IC50: it is the concentration that gives 50% inhibition. Low readings indicate inhibition by little substance, high ones a need for much substance. A word on the Ki: it is a dissociation constant, usually derived from enzyme kinetics or from competition with a known ligand. A lower Ki goes with tighter binding. In general, Dmax refers to the largest share of the target that was removed. In general, DC50 refers to the concentration at which degradation of the target reaches its halfway point.

(Values after publication PMC8362126, “Proteolysis Targeting Chimera (PROTAC) for Macrophage Migration Inhibitory Factor (MIF) Has Anti‐Proliferative Activity in Lung Cancer Cells” (Angewandte Chemie (International Ed. in English), 2021).)
